Results on nine compounds are retold here after patent publication EP0689839A2, “Use of inhibitors of adenosine triphosphatase for the manufacture of a medicament for the treatment of disorders anociated with beta-amyloid peptide” (ELI LILLY AND COMPANY, priority 1994, dated 1996).

Several values for one entry are separate records, joined by “and”; a condition that tells them apart may be missing. Equal values may be shown once.

Data set [1] relates to 293 751 SWE and CHO 751 SWE. Briefly: Cytotoxic effects / cellular viability by MTT in the cellular assay. The class given is cell-based. As to the method: (§1) Two cell lines (human kidney cell line 293 and Chinese hamster ovary cell line CHO) were stably transfected with the gene for APP751 containing the double mutation Lys₆₅₁-Met₆₅₂ to Asn₆₅₁-Leu₆₅₂ (APP-751 numbering) commonly called the Swedish mutation using the method described in Citron, et al., Nature (London), 360:672-674 (1992). The transfected cell lines were designated as 293 751 SWE and CHO 751 SWE, and were plated in Corning 96 well plates at 2.5 x 10⁴ or 1 x 10⁴ cells per well respectively in Dulbecco's […] essential media (DMEM) plus 10% fetal bovine serum. Following overnight incubation at 37°C in an incubator equilibrated with 10% carbon dioxide (CO₂) and humidified air, the media were removed and replaced with 200 µl per well of media containing a macrolide. After a two hour pretreatment period, the media were again removed and replaced with fresh media containing the test compound and the cells were incubated for an additional two hours.
Cytotoxic effects of the compounds were measured by a modification of the method of Hansen, et al., Journal of Immununological Methods, 119:203-210 (1989). […] The difference in the OD562nm and the OD650nm was measured in a UVmax microplate reader as an indicator of the cellular viability.

Data set [2] concerns β-amyloid peptide. Briefly: β-Amyloid Peptide Production Inhibition (Cellular Assay), ELISA of conditioned media. As to conditions: normalized for cytotoxicity (MTT). The class given is cell-based. As to the method: as §1
After treatment, plates were centrifuged at 1200 x g for five minutes at room temperature to pellet cellular debris from the conditioned media. From each well, 100 µl of conditioned media were transferred into an ELISA plate precoated with antibody 266 against βamyloid peptide(13-28) (Seubert et al., supra.) and stored at 4°C overnight. An ELISA assay employing labelled antibody 6C6 (against β-amyloid peptide-1-16) was run the next day to measure the amount of β-amyloid peptide produced.
The results of the β-amyloid peptide ELISA were fit to a standard curve and expressed as ng/ml β-amyloid peptide. In order to normalize for cytotoxicity, these β-amyloid peptide results were divided by the MTT results and expressed as a percentage of the results from a drug-free control.

For data set [3], the system named is β-amyloid peptide. Briefly: β-amyloid peptide production in human fetal primary cortical cultures (ELISA). As to conditions: 1 µM; twenty four hour-conditioned medium; endogenous amyloid precursor protein. The class given is cell-based. As to the method:
In order to better understand this phenomenon, human fetal primary cortical cultures, which secrete β-amyloid peptide as a result of endogenous amyloid precursor protein processing, were treated with 1 µM bafilomycin. Twenty four hour-conditioned medium was collected and evaluated using enzyme-linked immunosorbent assay (ELISA).

Data set [4] deals with human fetal primary cortical cultures. Briefly: Cytotoxicity in human fetal primary cortical cultures. It counts as cell-based. The note with it: 1 µM.
Data set [5] concerns vacuolar ATPases. The note with it: relative to other bafilomycins; cited from earlier work.
Setting [6] is: 1 µg/ml, read-out: Percent Inhibition.

`C/C=C/[C@H]1O[C@@](O)([C@@H](C)[C@H](O)[C@H](C)[C@H]2OC(=O)/C(OC)=C/C(C)=C/[C@@H](C)[C@@H](O)[C@@H](CC)[C@@H](O)[C@H](C)C/C(C)=C/C=C/[C@@H]2OC)C[C@@H](O[C@H]2C[C@@H](O)[C@H](OC(N)=O)[C@@H](C)O2)[C@@H]1C` [Concanamycin A, concanamycin A]: in data set [1] (1.2 µM), the “Percent Viability” value amounted to 97%. Further, the “Percent Inhibition” value in data set [2] (1.2 µM) was determined as 74 ± 4%. On to `CO/C1=C\C(C)=C\C(C)C(O)C(C)C/C(C)=C/C=C/C(OC)C(C(C)C(O)C(C)C2(O)CC(OC(=O)/C=C/C(=O)O)C(C)C(C(C)C)O2)OC1=O` (stereo not shown) [Bafilomycin C₁], for which the inhibition at 1 µg/mL in data set [2] (setting [6]) was determined as 90 ± 2%.

On to elaiophyline, for which the “Percent Inhibition” value in data set [2] (0.6 µM) was 98 ± 2%; in data set [2] (1.2 µM), 100 ± 1%; in data set [2] (2.4 µM), 100 ± 2%; in data set [2] (4.9 µM), 100 ± 1%; in data set [2] (9.8 µM), 100 ± 1% and 131 ± 1%. As for `CO/C1=C\C(C)=C\C(C)C(O)C(C)C/C(C)=C/C=C/C(OC)C(C(C)C(O)C(C)C(=O)/C=C/C(C)C(O)C(C)C)OC1=O` (stereo not shown) [Bafilomycin D, bafilomycin D], the inhibition at 1 µg/mL in data set [2] (setting [6]) came to 4 ± 3%.

With `CO/C1=C\C(C)=C\C(C)C(O)C(C)C/C(C)=C/C=C/C(OC)C(C(C)C(O)C(C)C2(O)CC(O)C(C)C(C(C)C)O2)OC1=O` (stereo not shown) [Bafilomycin A₁, bafilomycin A₁], the “Percent Inhibition” value in data set [2] (0.3 µM) is 91 ± 1% and 92 ± 1%. Also, the inhibition at 0.3 µM in data set [2] (0.3 µM, read-out: Percent Inhibition) was found to be 90 ± 2%.

Turning to `CO/C1=C\C(C)=C\[C@@H](C)[C@@H](O)[C@@H](C)C/C(C)=C/C=C/[C@H](OC)[C@@H]([C@@H](C)[C@@H](O)[C@H](C)[C@@]2(O)C[C@@H](O)[C@H](C)[C@@H](C(C)C)O2)OC1=O` [bafilomycin], the “inhibition of β-amyloid peptide production” value in data set [3] is recorded as “Greater than 75%”. For the same compound, the cytotoxicity result in data set [4] is “no cytotoxicity was observed”. With Bafilomycin B₁, the “Percent Inhibition” value in data set [2] (1 µg/ml) turned out to be 87 ± 1%. With bafilomycin D, the “poorer inhibitor of vacuolar ATPases than other bafilomycins, especially bafilomycin A1” value in data set [5] was approximately 40 fold. On to bafilomycin A₁, for which the “Percent Viability” value in data set [1] (0.3 µM) was 112% and 99% and 102%.
